Data: article PMC8942502 (Journal of Enzyme Inhibition and Medicinal Chemistry, 2022)
Read-outs that look alike come from different tables or passages of the source.

Experiments:
hMAO-B = target: T1, hMAO-B (Homo sapiens, UniProt P27338); assay: Anti-MAO assay (Amplex Red, p-tyramine); assay type: biochemical; conditions: mean ± SD, n = 3
T1 construct: purchased Sigma-Aldrich
T1 sequence (P27338 1-520): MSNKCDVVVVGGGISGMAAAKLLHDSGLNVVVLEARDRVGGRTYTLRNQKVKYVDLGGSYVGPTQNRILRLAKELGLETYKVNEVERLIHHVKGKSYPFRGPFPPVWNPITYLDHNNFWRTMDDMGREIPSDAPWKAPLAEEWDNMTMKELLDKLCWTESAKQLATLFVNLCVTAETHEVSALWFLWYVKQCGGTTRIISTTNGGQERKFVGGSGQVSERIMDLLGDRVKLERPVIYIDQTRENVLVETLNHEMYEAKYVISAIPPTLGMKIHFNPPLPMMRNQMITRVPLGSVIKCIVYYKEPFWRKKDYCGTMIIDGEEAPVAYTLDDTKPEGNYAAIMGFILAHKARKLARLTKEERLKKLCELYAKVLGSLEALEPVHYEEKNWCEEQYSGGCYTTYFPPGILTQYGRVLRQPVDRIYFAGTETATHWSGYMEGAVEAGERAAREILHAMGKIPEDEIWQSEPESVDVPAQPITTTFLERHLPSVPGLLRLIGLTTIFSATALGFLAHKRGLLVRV

hMAO-A = target: T2, hMAO-A (Homo sapiens, UniProt P21397); assay: Anti-MAO assay (Amplex Red, p-tyramine); assay type: biochemical; conditions: for MAO Selectivity Index: IC50 MAO-B/IC50 MAO-A; for IC50: mean ± SD, n = 3
T2 construct: purchased Sigma-Aldrich
T2 sequence (P21397 1-527): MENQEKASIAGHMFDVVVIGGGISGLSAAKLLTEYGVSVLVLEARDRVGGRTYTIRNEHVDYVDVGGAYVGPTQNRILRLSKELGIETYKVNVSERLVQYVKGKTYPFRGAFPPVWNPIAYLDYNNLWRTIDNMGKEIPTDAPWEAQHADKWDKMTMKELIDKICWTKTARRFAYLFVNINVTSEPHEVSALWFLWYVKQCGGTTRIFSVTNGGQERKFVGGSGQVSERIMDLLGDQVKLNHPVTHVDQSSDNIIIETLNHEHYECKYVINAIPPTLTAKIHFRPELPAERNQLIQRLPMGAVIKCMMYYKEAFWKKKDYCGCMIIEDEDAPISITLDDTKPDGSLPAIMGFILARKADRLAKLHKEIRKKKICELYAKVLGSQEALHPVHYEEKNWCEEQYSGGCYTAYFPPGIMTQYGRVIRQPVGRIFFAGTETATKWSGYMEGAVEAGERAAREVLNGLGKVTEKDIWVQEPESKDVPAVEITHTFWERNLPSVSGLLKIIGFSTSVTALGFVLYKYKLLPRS

LSD1-CoREST complex [1] = target: T3, LSD1-CoREST complex (Homo sapiens, UniProt O60341); assay: LSD1-CoREST inhibition assay (Amplex UltraRed/HRP, H3K4 peptide); assay type: biochemical; conditions: for IC50: mean ± SD from two experiments in duplicate, 10 min preincubation; for fold drop of anti-LSD1 potency compared with phenyl analogue: para compounds vs 1a, meta compound vs 1b
T3 construct: made in house; host or cells: Escherichia coli

LSD1-CoREST complex [2] = assay: LSD1-CoREST inhibition assay (Amplex UltraRed/HRP, H3K4 peptide); assay type: biochemical, human; conditions: for LSD1 selectivity vs MAO-A: IC50 MAO-A/IC50 LSD1; for LSD1 selectivity vs MAO-B: IC50 MAO-B/IC50 LSD1
LNCaP cells [3] = assay: MTT cell viability assay; assay type: cell-based; conditions: Homo sapiens
Protocol: (§1) The tested compounds have been dissolved in DMSO at […] as stock concentration. All compounds have been tested at 10 μM and 50 μM as final concentrations for WB analysis. All compounds have been used at 0.1 μM, 5 μM, 10 μM, 25 μM, 50 μM as final concentration for proliferation assays. ORY-1001 (Selleck Catalog No. S7795) was used as reference compound at the concentration of 25 μM.
(§2) Cell culture LNCaP and U937 were purchased from ATCC (Milan, Italy). LNCaP were grown in Roswell Park Memorial Institute culture medium (RPMI; EuroClone, Milan, Italy), supplemented with 10% heat-inactivated foetal bovine serum (FBS; Sigma-Aldrich, Schnellendorf, Germany), antimicrobials (100 U/mL penicillin, 100 µg/mL streptomycin, 250 ng/mL amphotericin-B), 2 mM L-glutamine (EuroClone, Milan, Italy), and 1% essential amino acids solution (MEM; EuroClone, Milan, Italy). U937 were cultured in Dulbecco’s Modified Eagle Medium (DMEM; EuroClone, Milan, Italy), supplemented with 10% heat-inactivated foetal bovine serum (FBS; Sigma-Aldrich, Schnellendorf, Germany), antimicrobials (100 U/mL penicillin, 100 µg/mL streptomycin, 250 ng/mL amphotericin-B), 2 mM L-glutamine (EuroClone). Cells have grown in standard incubator conditions at 37 °C and 5% CO2.
(§3) Cell viability was determined on LNCaP and U937 cell lines using Thiazolyl Blue Tetrazolium Bromide [3-(4,5-dimethylthiazol-2-yl)-2,5-diphenyltetrazolium bromide] (MTT; Sigma-Aldrich, Schnellendorf, Germany) assay, following manufacturer’s instructions. A total of 5 × 10^3 cells/well were plated in a 96-well plate and treated, in duplicates, and repeated for three times, with the tested compounds at different concentrations 0.1 μM, 5 μM, 10 μM, 25 μM, 50 μM as final concentrations for 48 h, and 72 h. […] Absorbance was read at a wavelength of 570 nm with a TECAN M − 200 reader (Tecan, Männedorf, Switzerland).

U937 cells = assay: MTT cell viability assay; assay type: cell-based; conditions: 0.1-50 μM, 48 and 72 h
Protocol: as §1, §2, §3

[4] = system: MV4-11 acute myeloid leukaemia (AML) cells; parameters: method as in PMID 32003940; conditions: cited from earlier work
LSD1 = conditions: Figure 1; cited from earlier work
NB4 APL cells = system: NB4 APL cells; parameters: method as in PMID 32003940; conditions: cited from earlier work
MAO-B = conditions: Figure 1, cited from earlier work
MAO-A = conditions: Figure 1, cited from earlier work
LNCaP cells [5] = system: LNCaP cells; parameters: method as in PMID 30693539; conditions: 72 h; cited from earlier work

Compound	IC50 (hMAO-B) [nM]	MAO Selectivity Index (hMAO-A)	IC50 (hMAO-A) [nM]	IC50 (LSD1-CoREST complex [1]) [nM]	melting point [°C]	IC50 (LNCaP cells [3]; 48 h) [µM]	IC50 (LNCaP cells [3]; 72 h) [µM]	LSD1 selectivity vs MAO-A (LSD1-CoREST complex [2])	LSD1 selectivity vs MAO-B (LSD1-CoREST complex [2])	effect on cell viability in U937 cells (U937 cells)	further results
NC1CC1c1ccc(NC(=O)c2ccc(-c3ccccc3)cc2)cc1 (centres unmarked) [1a]	–	–	–	190 ± 30	–	34.1 ± 13.2	25.4 ± 3.2	–	–	almost ineffective	cell growth arrest IC50 [4]: low, single-digit micromolar levels; IC50 (LSD1): 51 nM; cell growth arrest IC50 (NB4 APL cells): low, single-digit micromolar levels; MAO-B inhibition (MAO-B; @ 100 μM): 8%; MAO-A inhibition (MAO-A; @ 100 μM): 2%
Cl.NC1CC1c1ccc(NC(=O)c2cccc(-c3ccco3)c2)cc1 (centres unmarked) [2b, N-(4-(2-Aminocyclopropyl)phenyl)-3-(furan-2-yl)benzamide hydrochloride]	888 ± 77	9.5	93 ± 8	110 ± 44	208 to 210	27.6 ± 9.8	18.5 ± 2.7	0.8	8.1	almost ineffective	–
Cl.NC1CC1c1ccc(NC(=O)c2cccc(-c3ccncc3)c2)cc1 (centres unmarked) [6b, N-(4-(2-Aminocyclopropyl)phenyl)-3-(pyridin-4-yl)benzamide hydrochloride]	10400 ± 300	66	159 ± 14	572 ± 157	> 250	–	–	0.3	18.2	–	fold drop of anti-LSD1 potency compared with phenyl analogue (LSD1-CoREST complex [1]): 4 fold
Cl.NC1CC1c1ccc(NC(=O)c2cccc(-c3ccsc3)c2)cc1 (centres unmarked) [5b, N-(4-(2-Aminocyclopropyl)phenyl)-3-(thiophen-3-yl)benzamide hydrochloride]	820 ± 71	–	28 ± 2	5 ± 0.8	> 250	32.1 ± 7.8	17.2 ± 3.5	–	–	the most potent	–
C#CCN(C)CCCOc1ccc(Cl)cc1Cl [clorgyline]	–	–	–	–	–	–	–	–	–	–	IC50 (LNCaP cells [5]): 63.7 ± 8.2 µM
Cl.NC1CC1c1ccc(NC(=O)c2cccc(-c3ccoc3)c2)cc1 (centres unmarked) [3b, N-(4-(2-Aminocyclopropyl)phenyl)-3-(furan-3-yl)benzamide hydrochloride]	519 ± 36	0.5	1120 ± 97	221 ± 23	235 to 238	12.4 ± 6.1	13.4 ± 3.7	5.1	2.3	the most potent	–
NC1CC1c1ccc(NC(=O)c2ccccc2)cc1 (centres unmarked) [MC2584, reference compound]	–	–	–	–	–	–	–	–	–	–	IC50 (LSD1): 19 nM; IC50 (MAO-B): 8.98 µM; IC50 (MAO-A): 31 nM

More lines, main results first:

IC50 (hMAO-B) [nM]	MAO Selectivity Index (hMAO-A)	IC50 (hMAO-A) [nM]	IC50 (LSD1-CoREST complex [1]) [nM]	melting point [°C]	IC50 (LNCaP cells [3]; 48 h) [µM]	IC50 (LNCaP cells [3]; 72 h) [µM]	Compound	LSD1 selectivity vs MAO-A (LSD1-CoREST complex [2])	LSD1 selectivity vs MAO-B (LSD1-CoREST complex [2])	effect on cell viability in U937 cells (U937 cells)	further results
358 ± 31	5.2	69 ± 6	13900 ± 3060	> 250	–	–	Cl.NC1CC1c1ccc(NC(=O)c2ccc(-c3ccncc3)cc2)cc1 (centres unmarked) [6a, N-(4-(2-Aminocyclopropyl)phenyl)-4-(pyridin-4-yl)benzamide hydrochloride]	–	–	–	fold drop of anti-LSD1 potency compared with phenyl analogue (LSD1-CoREST complex [1]): 73 fold
366 ± 32	15.3	24 ± 2	15 ± 3	245 to 248	25.7 ± 8.3	15.2 ± 3.5	Cl.NC1CC1c1ccc(NC(=O)c2cccc(-c3cccs3)c2)cc1 (centres unmarked) [4b, N-(4-(2-Aminocyclopropyl)phenyl)-3-(thiophen-2-yl)benzamide hydrochloride]	1.6	24.4	almost ineffective	–
327 ± 28	11.7	28 ± 2	149 ± 43	> 250	22.8 ± 5.1	9.9 ± 1.7	Cl.NC1CC1c1ccc(NC(=O)c2cccc(-c3ccccc3)c2)cc1 (centres unmarked) [1b, N-(4-(2-Aminocyclopropyl)phenyl)-[1,1′-biphenyl]-3-carboxamide hydrochloride]	0.2	2.2	the most potent	fold higher potency against LSD1 of meta regioisomer than para counterpart (LSD1-CoREST complex [1]; meta vs para): 1.3 fold
32 ± 3	1.3	25 ± 2	1080 ± 359	> 250	–	–	Cl.NC1CC1c1ccc(NC(=O)c2ccc(-c3cccs3)cc2)cc1 (centres unmarked) [4a, N-(4-(2-Aminocyclopropyl)phenyl)-4-(thiophen-2-yl)benzamide hydrochloride]	–	–	–	–
67 ± 6	1.6	42 ± 4	341 ± 106	–	26.5 ± 4.8	17.9 ± 1.6	Cl.NC1CC1c1ccc(NC(=O)c2ccc(-c3ccsc3)cc2)cc1 (centres unmarked) [5a, N-(4-(2-Aminocyclopropyl)phenyl)-4-(thiophen-3-yl)benzamide hydrochloride]	–	–	the most potent	–
93 ± 8	0.6	160 ± 14	2340 ± 225	–	–	–	Cl.NC1CC1c1ccc(NC(=O)c2ccc(-c3ccoc3)cc2)cc1 (centres unmarked) [3a, N-(4-(2-Aminocyclopropyl)phenyl)-4-(furan-3-yl)benzamide hydrochloride]	–	–	–	–
73 ± 6	1.7	43 ± 4	2000 ± 528	–	–	–	Cl.NC1CC1c1ccc(NC(=O)c2ccc(-c3ccco3)cc2)cc1 (centres unmarked) [2a, N-(4-(2-Aminocyclopropyl)phenyl)-4-(furan-2-yl)benzamide hydrochloride]	–	–	–	–
